Activity calls are given as the source filed them. How the calls were made is not given here.
Target: Hepatocyte nuclear factor 4-alpha (Homo sapiens) (UniProt P41235)
Assay: inhibitors of HNF4 dimer formation – biochemical, luminescence, dose response, round 3, counter-screen for ABHD5-PLIN5 interaction inhibitor project, late-stage follow-up (AID 652137)
Conditions: HNF4 dimerization, luminescence biochemical assay

Sequence of Hepatocyte nuclear factor 4-alpha (Homo sapiens) (P41235 whole entry, looked up): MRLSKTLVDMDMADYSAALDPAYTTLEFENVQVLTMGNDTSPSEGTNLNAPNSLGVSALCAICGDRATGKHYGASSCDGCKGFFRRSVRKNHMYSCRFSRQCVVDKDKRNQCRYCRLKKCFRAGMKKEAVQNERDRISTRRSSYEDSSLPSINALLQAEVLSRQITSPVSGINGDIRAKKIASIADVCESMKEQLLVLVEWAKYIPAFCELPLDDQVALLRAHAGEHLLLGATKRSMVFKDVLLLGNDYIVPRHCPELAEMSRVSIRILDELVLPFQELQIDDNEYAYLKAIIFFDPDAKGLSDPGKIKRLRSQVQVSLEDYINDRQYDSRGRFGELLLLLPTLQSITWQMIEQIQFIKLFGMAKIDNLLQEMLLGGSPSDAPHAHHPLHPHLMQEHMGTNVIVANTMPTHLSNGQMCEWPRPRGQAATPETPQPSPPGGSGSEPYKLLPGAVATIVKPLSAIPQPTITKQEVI

| Compound | IC50 |
| --- | --- |
| CCCCCNC(=O)Nc1ccc2c(c1)N(C)C(=O)c1ccccc1S2 | > 39.8 µM (inactive) |
| CCCCNC(=O)Nc1ccc2c(c1)N(C)C(=O)c1ccccc1S2 | > 39.8 µM (inactive) |
| CN1C(=O)c2ccccc2Sc2ccc(NC(=O)NCCCc3ccccc3)cc21 | > 39.8 µM (inactive) |

Other lines, results leading:

| IC50 | Compound |
| --- | --- |
| > 39.8 µM (inactive) | CCCCCCNC(=O)Nc1ccc2c(c1)N(C)C(=O)c1ccccc1S2 |
| > 39.8 µM (inactive) | CCCCCCCNC(=O)Nc1ccc2c(c1)N(C)C(=O)c1ccccc1S2 |

Source: PubChem BioAssay AID652137 (The Scripps Research Institute Molecular Screening Center, 2013)
